In patent publication US10226453B2, “3-(1H-indol-2-yl)-1H-pyrazolo[4,3-B]pyridines and therapeutic uses thereof” (Samumed, LLC, priority 2015, dated 2019) one finds EC50 data, which are given here for 9 compounds.

The structures appear in SMILES notation.

What all share (assay type): cell-based
For assay [1], the system named is Wnt activity (Sp5-Luc reporter, SW480 colon carcinoma cells). The assay can be described thus: Wnt activity screening assay: Sp5-Luc reporter gene in SW480 colon carcinoma cells. The conditions noted are these: Homo sapiens, overnight incubation, 10-point curve from 10 μM. The text has this:
The screening assay for Wnt activity is described as follows. Reporter cell lines can be generated by stably transducing cancer cell lines (e.g., colon cancer) or primary cells (e.g., IEC-6 intestinal cells) with a lentiviral construct that includes a Wnt-responsive promoter driving expression of the firefly luciferase gene.
SW480 colon carcinoma cells were transduced with a lentiviral vector expressing luciferase with a human Sp5 promoter consisting of a sequence of eight TCF/LEF binding sites. SW480 cells stably expressing the Sp5-Luc reporter gene and a hygromycin resistance gene were selected by treatment with 150 μg/mL of hygromycin for 7 days. These stably transduced SW480 cells were expanded in cell culture and used for all further screening activities. Each compound was dissolved in DMSO as a 10 mM stock and used to prepare compound source plates. Serial dilution (1:3, 10-point dose-response curves starting from 10 μM) and compound transfer was performed using the ECHO 550 (Labcyte, Sunnyvale, Calif.) into 384-well white solid bottom assay plates (Greiner Bio-One) with appropriate DMSO backfill for a final DMSO concentration of 0.1%. For Sp5-Luc reporter gene assays, the cells were plated at 4,000 cells/well in 384-well plates with medium containing 1% fetal bovine serum and incubated overnight at 37° C. and 5% CO2. Following incubation, 20 μl of BrightGlo luminescence reagent (Promega) was added to each well of the 384-well assay plates. The plates were placed on an orbital shaker for 2 min and then luminescence was quantified using the Envision (Perkin Elmer) plate reader. Readings were normalized to DMSO only treated cells, and normalized activities were utilized for EC50 calculations using the dose-response log (inhibitor) vs. response-variable slope (four parameters) nonlinear regression feature available in GraphPad Prism 5.0 (or Dotmatics). For EC50 of >10 μM, the percent inhibition at 10 μM is provided.

For a further assay, the system named is IL-6 (THP-1 cells). The assay is described as follows: IL-6 inhibition in LPS-stimulated THP-1 human monocyte cells (HTRF). The following applies: LPS 500 ng/mL, 22 hours, IL6 HTRF. The procedure:
Human monocyte cell line (THP-1 cells; Catalog # TIB-202, ATCC, Manassas, Va.) were cultured in Roswell Park Memorial Institute (RPMI) 1640 Medium (Catalog #21870-100, Buffalo, N.Y.) with 1% L-glutamine, 1% HEPES, 1% Sodium Pyruvate, 2% Sodium Bicarbonate supplemented with 100 units/mL penicillin, 50 μg/mL streptomycin, 2-mercaptoethanol (0.05 mM) [basal medium] and 10% fetal bovine serum (Catalog #16140089, Life Technologies, Carlsbad, Calif.) at 37° C. and 5% CO2.
THP-1 cells were cultured in basal media with 1% FBS for 24 hours before the start of the assay. Each compound was dissolved in DMSO as a 10 mM stock and used to prepare compound source plates. Serial dilution (1:3, 10-point dose-response curves starting from 10 μM) and compound transfer was performed using the ECHO 550 (Labcyte, Sunnyvale, Calif.) into 384-well white low volume assay plates (Greiner Bio-One) with appropriate DMSO backfill for a final DMSO concentration of 0.1%. THP-1 cells were plated at 5000 cells/well in the 384-well plates and incubated at 37° C. for 2 h. 500 ng/mL of LPS was added after 2 hours and cells were incubated for another 22 hours at 37° C. Plates were spun in a centrifuge for 1 minute at […] and a mixture of anti-IL6 XL665, and anti-IL6 Cryptate diluted in reconstitution buffer (Cisbio Inc.) was added to each well. Following incubation for 3 hrs at room temperature, Homogeneous Time-Resolved Fluorescence (HTRF) was measured using the Envision (Perkin Elmer) at 665 nm and […]. The ratio of fluorescence at 665 nm to 620 nm was used as a readout for IL6 quantification. All samples were processed in duplicate. Readings were normalized to DMSO treated cells and normalized activities were utilized for EC50 calculations using the dose-response log (inhibitor) vs. response-variable slope (four parameters) nonlinear regression feature available in GraphPad Prism 5.0 (or Dotmatics). For EC50 of >10 μM, the percent inhibition at 10 μM is provided.

Assay [2] has as its system primary human fibroblasts derived from IPF patients (LL29 cells) treated with TGF-β1. The assay can be described thus: Inhibition of the fibrotic process: αSMA staining in TGF-β1 treated primary human fibroblasts from IPF patients (LL29 cells). The conditions noted are these: Fibroblast, 96 h, TGF-β1 20 ng/mL, 4 days, % αSMA positive cells. The text has this:
Representative compounds were screened using primary human fibroblasts (derived from IPF patients) treated with TGF-β1 to determine their ability to inhibit the fibrotic process.
Primary human fibroblasts derived from IPF patients (LL29 cells) [^1Xiaoqiu Liu, et. al., “Fibrotic Lung Fibroblasts Show Blunted Inhibition by cAMP Due to Deficient cAMP Response Element-Binding Protein Phosphorylation”, Journal of Pharmacology and Experimental Therapeutics (2005), 315(2), 678-687; ^2Watts, K. L., et. al., “RhoA signaling modulates cyclin D1 expression in human lung fibroblasts; implications for idiopathic pulmonary fibrosis”, Respiratory Research (2006), 7(1), 88] were obtained from American Type Culture Collection (ATCC) and expanded in F12 medium supplemented with 15% Fetal Bovine Serum and Penicillin/Streptomycin.
Each compound was dissolved in DMSO as a 10 mM stock and used to prepare compound source plates. Serial dilution (1:2, 11-point dose-response curves from 10 μM to 1.87 nM) and compound transfer was performed using the ECHO 550 (Labcyte, Sunnyvale, Calif.) into 384-well clear bottom assay plates (Greiner Bio-One) with appropriate DMSO backfill for a final DMSO concentration of 0.1%. LL29 cells are plated at 1,500 cells/well in 80 μL/well F12 medium supplemented with 1% Fetal Bovine Serum. One hour after addition of the cells, TGF-β1 (Peprotech; 20 ng/mL) was added to the plates to induce fibrosis (ref. 1 and 2 above). Wells treated with TGF-β1 and containing DMSO were used as controls. Cells were incubated at 37° C. and 5% CO2 for 4 days. Following incubation for 4 days, SYTOX green nucleic acid stain (Life Technologies [Thermo Fisher Scientific]) was added to the wells at a final concentration of 1 μM and incubated at room temperature for 30 min. Cells were then fixed using 4% formaldehyde (Electron Microscopy Sciences), washed 3 times with PBS followed by blocking and permeabilization using 3% Bovine Serum Albumin (BSA; Sigma) and 0.3% Triton X-100 (Sigma) in PBS. Cells were then stained with antibody specific to α-smooth muscle actin (αSMA; Abcam) (ref. 1 and 2 above) in 3% Bovine Serum Albumin (BSA; Sigma) and 0.3% Triton X-100 (Sigma) in PBS, and incubated overnight at 4° C. Cells were then washed 3 times with PBS, followed by incubation with Alexa Flor-647 conjugated secondary antibody (Life Technologies [Thermo Fisher Scientific]) and DAPI at room temperature for 1 hour. Cells were then washed 3 times with PBS and plates were sealed for imaging. αSMA staining was imaged by excitation at 630 nm and emission at 665 nm and quantified using the Compartmental Analysis program on the CellInsight CX5 (Thermo Scientific). Dead or apoptotic cells were excluded from analysis based on positive SYTOX green staining. % of total cells positive for αSMA were counted in each well and normalized to the average of 11 wells treated with TGF-β1 on the same plate using Dotmatics' Studies Software. The normalized averages (fold change over untreated) of 3 replicate wells for each compound concentration were used to create dose-responses curves and EC50 values were calculated using non-linear regression curve fit in the Dotmatics' Studies Software. For EC50 of >10 μM, the percent inhibition at 10 μM is provided.

A further assay has as its system SW480 colon cancer cells. The assay can be described thus: Cell viability assay (CellTiter-Blue), SW480 colon cancer cells. The following applies: Homo sapiens, 96 h, four days, CellTiter-Blue. The protocol:
Representative compounds were screened using the following assay procedure to assess the effect on cell viability as described below.
Each compound was dissolved in DMSO as a 10 mM stock and used to prepare compound source plates. Serial dilution (1:3, 8-point dose-response curves from 10 μM to 0.0045 μM) and compound transfer was performed using the ECHO 550 (Labcyte, Sunnyvale, Calif.) into 96-well clear bottom, black-walled plates (Corning—Costar).
Approximately 2×10^3 SW480 colon cancer cells were seeded into each well and allowed to incubate in the presence or absence of compound for four days at 37° C./5% CO2. Eight replicates of DMSO-treated cells served as controls and cells treated with compound were performed in duplicate.
After incubation, 20 μL of CellTiter-Blue (Promega) was added to each well allowed to incubate for approximately 3 hours. This reagent was a buffered solution which contains resazurin, metabolically active cells were able to reduce rezarurin (blue) into resorufin (pink) which was highly fluorescent. This measured fluorescence was used as a readout for cell viability.
After incubation, the plates were read at Ex 560 nm Em 590 nm (Cytation 3, BioTek). Dose-response curves were generated and EC50 concentration values were calculated using non-linear regression curve fit in the GraphPad Prism (San Diego, Calif.) or Dotmatics' Studies Software (Bishops Stortford, UK). For EC50 of >10 μM, the percent inhibition at 10 μM is provided.
For orientation: Resazurin is reduced to fluorescent resorufin, in cell work by metabolically active cells.

In general, EC50 refers to the midpoint of the concentration-response curve. Lower therefore signals higher potency in that assay. `CC(C)CC(=O)Nc1cncc(-c2ccc3[nH]nc(-c4cc5c(-c6ccccc6F)cccc5[nH]4)c3n2)c1` [Compound 58, N-(5-(3-(4-(2-Fluorophenyl)-1H-indol-2-yl)-1H-pyrazolo[4,3-b]pyridin-5-yl)pyridin-3-yl)-3-methylbutanamide]: the EC50 was found to be 254 nM in assay [1], 72 nM in the assay on IL-6 (THP-1 cells), 628 nM in assay [2] and 1210 nM in the assay with SW480 colon cancer cells.
The corresponding values for `Cn1cc(-c2ccc3[nH]nc(-c4cc5c(-c6cccc(F)c6)cccc5[nH]4)c3n2)cn1` [Compound 536, 3-(4-(3-Fluorophenyl)-1H-indol-2-yl)-5-(1-methyl-1H-pyrazol-4-yl)-1H-pyrazolo[4,3-b]pyridine] are 338 nM, 23 nM, 230 nM and 2780 nM.
As for `CS(=O)(=O)NCc1cc(F)cc(-c2cccc3[nH]c(-c4n[nH]c5ccc(C6CCNCC6)nc45)cc23)c1` [Compound 789, N-(3-Fluoro-5-(2-(5-(piperidin-4-yl)-1H-pyrazolo[4,3-b]pyridin-3-yl)-1H-indol-4-yl)benzyl)methanesulfonamide], the EC50 in assay [1] was 2950 nM; with IL-6 (THP-1 cells), 2250 nM; in assay [2], 9630 nM; in the assay with SW480 colon cancer cells, 5180 nM.
The corresponding values for `Fc1cccc(-c2cccc3[nH]c(-c4n[nH]c5ccc(-c6cccnc6)nc45)cc23)c1` [Compound 4, 3-(4-(3-Fluorophenyl)-1H-indol-2-yl)-5-(pyridin-3-yl)-1H-pyrazolo[4,3-b] pyridine] are 209 nM, 439 nM, 974 nM and 9660 nM.
The corresponding values for `CCCCC(=O)Nc1cncc(-c2ccc3[nH]nc(-c4cc5ncccc5[nH]4)c3n2)c1` [Compound 523, N-(5-(3-(1H-Pyrrolo[3,2-b]pyridin-2-yl)-1H-pyrazolo[4,3-b]pyridin-5-yl)pyridin-3-yl)pentanamide] are 550 nM, 20 nM, 697 nM and 943 nM.
The corresponding values for `O=C(Nc1cncc(-c2ccc3[nH]nc(-c4cc5c(-c6ccccc6F)cccc5[nH]4)c3n2)c1)C1CC1` [Compound 76, N-(5-(3-(4-(2-Fluorophenyl)-1H-indol-2-yl)-1H-pyrazolo[4,3-b]pyridin-5-yl)pyridin-3-yl)cyclopropanecarboxamide] are 164 nM, 51 nM, 502 nM and 895 nM.
On to `CN(C)CCNc1cc(F)cc(-c2cccc3[nH]c(-c4n[nH]c5ccc(-c6cncc(NC(=O)Cc7ccccc7)c6)nc45)cc23)c1` [Compound 458, N-(5-(3-(4-(3-((2-(Dimethylamino)ethyl)amino)-5-fluorophenyl)-1H-indol-2-yl)-1H-pyrazolo[4,3-b]pyridin-5-yl)pyridin-3-yl)-2-phenylacetamide], for which the EC50 in assay [1] was 1030 nM; with IL-6 (THP-1 cells), 1460 nM; in assay [2] it was 1860 nM; with SW480 colon cancer cells it was 970 nM.
The corresponding values for `CC(C)Nc1cncc(-c2ccc3[nH]nc(-c4cc5c(-c6cccnc6)cccc5[nH]4)c3n2)c1` [Compound 96, N-Isopropyl-5-(3-(4-(pyridin-3-yl)-1H-indol-2-yl)-1H-pyrazolo[4,3-b]pyridin-5-yl)pyridin-3-amine] are 107 nM, 75 nM, 214 nM and 604 nM.
The like results for `CN1CCN(c2cccc3[nH]c(-c4n[nH]c5ccc(-c6cncc(NC(=O)CC(C)(C)C)c6)nc45)cc23)CC1` [Compound 240, 3,3-Dimethyl-N-(5-(3-(4-(4-methylpiperazin-1-yl)-1H-indol-2-yl)-1H-pyrazolo[4,3-b]pyridin-5-yl)pyridin-3-yl)butanamide] were, in that order, 2980 nM, 244 nM, 1750 nM and 1840 nM.
